The values that follow come from ChEMBL document CHEMBL2157975 (Bioorg Med Chem Lett, 2012).

Assay [1] deals with T1, Type-1 angiotensin II receptor (Homo sapiens, UniProt P30556).
T1 sequence (P30556 whole entry): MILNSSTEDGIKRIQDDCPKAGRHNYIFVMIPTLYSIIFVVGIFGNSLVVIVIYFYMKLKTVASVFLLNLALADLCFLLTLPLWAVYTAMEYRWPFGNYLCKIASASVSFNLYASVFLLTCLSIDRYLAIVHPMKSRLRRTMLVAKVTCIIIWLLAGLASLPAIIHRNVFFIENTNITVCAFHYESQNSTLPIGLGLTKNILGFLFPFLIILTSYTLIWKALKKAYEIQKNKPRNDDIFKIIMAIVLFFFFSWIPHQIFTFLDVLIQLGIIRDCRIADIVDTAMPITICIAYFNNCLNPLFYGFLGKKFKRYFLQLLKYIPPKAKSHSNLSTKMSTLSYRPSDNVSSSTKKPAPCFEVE
The assay can be described thus: Inhibition of AT1 receptor.

Assay [2] concerns the target T2, Apelin receptor (Homo sapiens, UniProt P35414).
T2 sequence (P35414 whole entry): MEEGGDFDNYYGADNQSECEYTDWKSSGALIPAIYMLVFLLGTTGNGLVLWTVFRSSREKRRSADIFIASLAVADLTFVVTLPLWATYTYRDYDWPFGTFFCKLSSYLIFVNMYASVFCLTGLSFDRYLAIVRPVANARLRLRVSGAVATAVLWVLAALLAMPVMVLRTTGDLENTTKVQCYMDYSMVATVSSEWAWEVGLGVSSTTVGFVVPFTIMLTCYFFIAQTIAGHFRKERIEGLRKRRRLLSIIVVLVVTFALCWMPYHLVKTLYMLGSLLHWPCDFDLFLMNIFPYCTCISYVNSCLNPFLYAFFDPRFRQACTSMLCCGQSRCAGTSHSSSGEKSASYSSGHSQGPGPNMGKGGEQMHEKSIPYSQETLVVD
The assay can be described thus: Antagonist activity at APJ receptor expressed in CHOK1 cells assessed as inhibition of apelin13-induced beta-arrestin recruitment after 90 mins by luminescence assay. The class given is functional, cell-based, CHO-K1.

A short description of assay [3]: Selectivity ratio of IC50 for AT1 receptor to IC50 for APJ receptor (unknown receptor).

By IC50 is commonly meant the concentration needed to halve the response being measured. On to `O=C(Oc1coc(CSc2ncccn2)cc1=O)c1cc(Cl)ccc1[N+](=O)[O-]`, for which the IC50 in assay [1] and in assay [2] was more than 79 µM each time.

In the case of `Cc1ccnc(SCc2cc(=O)c(OC(=O)c3ccc([N+](=O)[O-])cc3)co2)n1`, the Ratio IC50 in assay [3] is more than 23. Besides, in assay [1], the IC50 is more than 79 µM.

For the compound `Cc1ccnc(SCc2cc(=O)c(OC(=O)c3ccc(Cl)cc3)co2)n1`, the IC50 in assay [1] and in assay [2] was more than 79 µM in each case.

Regarding `Cc1ccnc(SCc2cc(=O)c(OC(=O)c3ccc(C(F)(F)F)cc3)co2)n1`, in assay [1], the IC50 was more than 79 µM.

For the compound `O=C(Oc1coc(CSc2ncccn2)cc1=O)c1ccc(S(=O)(=O)N2CCCC2)cc1`, the IC50 in assay [1] and in assay [2] was more than 79 µM in each case.

Turning to `Cc1ccnc(SCc2cc(=O)c(OC(=O)c3cccc(Cl)c3)co2)n1`, the half-inhibitory concentration (IC50) in assay [1] and in assay [2] was more than 79 µM each time.

Consider `Cc1ccc(C(=O)Oc2coc(CSc3nccc(C)n3)cc2=O)cc1`, for which the IC50 in assay [1] and in assay [2] was more than 79 µM throughout.

As to `O=C(Oc1coc(CSc2ncccn2)cc1=O)c1ccc(F)cc1`, the IC50 in assay [1] and in assay [2] was more than 79 µM in each case.

As for `Cc1ccc(C(=O)Oc2coc(CSc3ncccn3)cc2=O)cc1[N+](=O)[O-]`, in assay [3], the Ratio IC50 is more than 11. In assay [1], the 50% inhibitory concentration (IC50) was more than 79 µM.

In the case of `CC(C)(C)c1ccc(C(=O)Oc2coc(CSc3ncccn3)cc2=O)cc1`, the IC50 in assay [1] and in assay [2] was more than 79 µM throughout.

With `O=c1cc(CSc2ccc(F)cc2)occ1O`, the IC50 in assay [1] and in assay [2] was more than 79 µM throughout.

On to `O=C(Oc1coc(CSc2ncccn2)cc1=O)c1ccc(Cl)c([N+](=O)[O-])c1`, for which the Ratio IC50 in assay [3] is more than 13. Further, in assay [1], the IC50 was more than 79 µM.

`Cc1ccnc(SCc2cc(=O)c(OC(=O)c3ccc(C)c([N+](=O)[O-])c3)co2)n1`: the Ratio IC50 in assay [3] was more than 17. The same compound showed an IC50 in assay [1] of more than 79 µM.

As for `Cc1ccc(SCc2cc(=O)c(OC(=O)c3ccc(Cl)c([N+](=O)[O-])c3)co2)cc1`, in assay [3], the Ratio IC50 was more than 6. For the same compound, the IC50 was more than 79 µM in assay [1] and 12.8 µM in assay [2].

As for `Cc1cc(C)nc(SCc2cc(=O)c(OS(=O)(=O)c3ccc([N+](=O)[O-])cc3)co2)n1`, the 50% inhibitory concentration (IC50) in assay [1] and in assay [2] was more than 79 µM throughout.

In the case of `O=C(Oc1coc(CSc2ncccn2)cc1=O)c1ccc(S(=O)(=O)N2CCOCC2)cc1`, the 50% inhibitory concentration (IC50) in assay [1] and in assay [2] was more than 79 µM each time.

Compound `Cc1ccnc(SCc2cc(=O)c(OC(=O)c3cccc([N+](=O)[O-])c3)co2)n1` yielded a half-inhibitory concentration (IC50) in assay [1] of more than 79 µM.

Regarding `Cc1ccnc(SCc2cc(=O)c(OC(=O)c3cc(Cl)ccc3[N+](=O)[O-])co2)n1`, the IC50 in assay [1] was more than 79 µM.

On to `Cc1ccc(C(=O)Oc2coc(CSc3ncccn3)cc2=O)cc1C`, for which the IC50 in assay [1] and in assay [2] was more than 79 µM in each case.

For the compound `CN(C)S(=O)(=O)c1ccc(C(=O)Oc2coc(CSc3ncccn3)cc2=O)cc1`, the IC50 in assay [1] and in assay [2] was more than 79 µM throughout.

In the case of `O=C(Oc1coc(CSc2ccccc2)cc1=O)c1ccc(Cl)c([N+](=O)[O-])c1`, in assay [3], the Ratio IC50 was more than 8. Further, the IC50 in assay [1] is more than 79 µM; in assay [2] it was 9.61 µM.

In the case of `Cc1cc(C)nc(SCc2cc(=O)c(OS(=O)(=O)c3ccccc3)co2)n1`, the IC50 in assay [1] and in assay [2] was more than 79 µM throughout.

As for `Cc1ccnc(SCc2cc(=O)c(OC(=O)c3ccc(C#N)cc3)co2)n1`, the Ratio IC50 in assay [3] is more than 7. Further, in assay [1], the IC50 is more than 79 µM.

Turning to `Cc1ccnc(SCc2cc(=O)c(OC(=O)c3ccc([N+](=O)[O-])o3)co2)n1`, the IC50 in assay [1] and in assay [2] was more than 79 µM in each case.

Consider `CC(=O)Oc1coc(CSc2nccc(C)n2)cc1=O`, for which the IC50 in assay [1] and in assay [2] was more than 79 µM throughout.

In the case of `Cc1ccc(C(=O)Oc2coc(CSc3ncccn3)cc2=O)cc1`, the IC50 in assay [1] and in assay [2] was more than 79 µM in each case.

Consider `Cc1ccnc(SCc2cc(=O)c(OC(=O)c3ccc(S(=O)(=O)N4CCCC4)cc3)co2)n1`, for which the 50% inhibitory concentration (IC50) in assay [1] is more than 79 µM.

As for `Cc1ccnc(SCc2cc(=O)c(OCc3ccc(Cl)c([N+](=O)[O-])c3)co2)n1`, the IC50 in assay [1] and in assay [2] was more than 79 µM each time.

As to `CC(C)Oc1ccc(C(=O)Oc2coc(CSc3ncccn3)cc2=O)cc1`, the IC50 in assay [1] and in assay [2] was more than 79 µM throughout.

In turn, `O=C(Oc1coc(CSc2ncccn2)cc1=O)c1ccc(Cl)cc1` came in with an IC50 in assay [1] of more than 79 µM.

For `COc1cccc(C(=O)Oc2coc(CSc3nccc(C)n3)cc2=O)c1`, the IC50 in assay [1] and in assay [2] was more than 79 µM throughout.

For the compound `Cc1ccnc(SCc2cc(=O)c(OC(=O)c3ccc(F)cc3)co2)n1`, the IC50 in assay [1] and in assay [2] was more than 79 µM throughout.

Take `Cc1ccnc(SCc2cc(=O)c(OC(=O)c3ccccc3Cl)co2)n1`: the IC50 is more than 79 µM in assay [1] and more than 59 µM in assay [2].

`COc1ccc(C(=O)Oc2coc(CSc3ncccn3)cc2=O)cc1`: the IC50 in assay [1] and in assay [2] was more than 79 µM throughout.

`Cc1cccc(C(=O)Oc2coc(CSc3nccc(C)n3)cc2=O)c1`: the IC50 in assay [1] and in assay [2] was more than 79 µM in each case.

Regarding `Cc1ccnc(SCc2cc(=O)c(OC(=O)C(C)(C)C)co2)n1`, the IC50 in assay [1] and in assay [2] was more than 79 µM each time.

On to `O=C(Oc1coc(CSc2ncccn2)cc1=O)c1ccccc1`, for which the IC50 in assay [1] and in assay [2] was more than 79 µM in each case.

`Cc1ccnc(SCc2cc(=O)c(OC(=O)C(C)C)co2)n1`: the IC50 in assay [1] and in assay [2] was more than 79 µM in each case.

For `Cc1ccnc(SCc2cc(=O)c(O)co2)n1`, the 50% inhibitory concentration (IC50) in assay [1] and in assay [2] was more than 79 µM in each case.

On to `Cc1ccnc(SCc2cc(=O)c(OC(=O)c3ccccc3)co2)n1`, for which the IC50 in assay [1] and in assay [2] was more than 79 µM each time.

Regarding `O=C(Oc1coc(CSc2ncccn2)cc1=O)c1cccc([N+](=O)[O-])c1`, the 50% inhibitory concentration (IC50) in assay [1] is more than 79 µM.

With `Cc1ccnc(SCc2cc(=O)c(NC(=O)c3ccccc3)co2)n1`, the IC50 in assay [1] and in assay [2] was more than 79 µM in each case.

`O=C(Oc1coc(CSc2ncccn2)cc1=O)c1ccc(C(F)(F)F)cc1` returned a 50% inhibitory concentration (IC50) in assay [1] of more than 79 µM.

Consider `O=C(Oc1coc(CSc2ncccn2)cc1=O)c1ccc(S(=O)(=O)N2CCCCC2)cc1`, for which the IC50 in assay [1] and in assay [2] was more than 79 µM in each case.

Turning to `Cc1ccnc(SCc2cc(=O)c(OC(=O)c3ccccc3C)co2)n1`, the IC50 in assay [1] and in assay [2] was more than 79 µM throughout.

As to `COc1ccc(C(=O)Oc2coc(CSc3nccc(C)n3)cc2=O)cc1`, the IC50 in assay [1] and in assay [2] was more than 79 µM each time.

In the case of `Cc1ccnc(SCc2cc(=O)c(NC(=O)c3ccc([N+](=O)[O-])cc3)co2)n1`, the IC50 in assay [1] and in assay [2] was more than 79 µM in each case.

`O=c1cc(CSc2ccccc2)occ1O`: the IC50 in assay [1] and in assay [2] was more than 79 µM in each case.

As to `Cc1ccnc(SCc2cc(=O)c(OC(=O)c3cccc(C#N)c3)co2)n1`, the half-inhibitory concentration (IC50) in assay [1] and in assay [2] was more than 79 µM each time.

For the compound `Cc1ccnc(SCc2cc(=O)c(OC(=O)c3ccsc3)co2)n1`, the IC50 in assay [1] and in assay [2] was more than 79 µM in each case.

Consider `CCN(CC)S(=O)(=O)c1ccc(C(=O)Oc2coc(CSc3ncccn3)cc2=O)cc1`, for which the half-inhibitory concentration (IC50) in assay [1] and in assay [2] was more than 79 µM each time.

Regarding `CCOc1ccc(C(=O)Oc2coc(CSc3ncccn3)cc2=O)cc1`, the IC50 in assay [1] and in assay [2] was more than 79 µM throughout.

`Cc1ccnc(SCc2cc(=O)c(OC(=O)c3cc([N+](=O)[O-])ccc3Cl)co2)n1`: in assay [1], the concentration for half-maximal inhibition (IC50) was more than 79 µM.

In the case of `COc1cc(C(=O)Oc2coc(CSc3ncccn3)cc2=O)c([N+](=O)[O-])cc1OC`, the IC50 in assay [1] and in assay [2] was more than 79 µM throughout.

In the case of `Cc1ccnc(SCc2cc(=O)c(OC(=O)c3ccco3)co2)n1`, the IC50 in assay [1] and in assay [2] was more than 79 µM throughout.

On to `Cc1cc(C)nc(SCc2cc(=O)c(O)co2)n1`, for which the IC50 in assay [1] and in assay [2] was more than 79 µM each time.

For the compound `Cc1ccnc(SCc2cc(=O)c(OC(=O)c3ccc(OC(F)(F)F)cc3)co2)n1`, the IC50 in assay [1] and in assay [2] was more than 79 µM in each case.

On to `Cc1ccnc(SCc2cc(=O)c(OCc3ccccc3)co2)n1`, for which the IC50 in assay [1] and in assay [2] was more than 79 µM in each case.

As to `CCCCOc1ccc(C(=O)Oc2coc(CSc3ncccn3)cc2=O)cc1`, the IC50 in assay [1] and in assay [2] was more than 79 µM each time.

In the case of `O=c1cc(CSc2ncccn2)occ1O`, the IC50 in assay [1] and in assay [2] was more than 79 µM each time.

With `Cc1c(C(=O)Oc2coc(CSc3ncccn3)cc2=O)cccc1[N+](=O)[O-]`, in assay [1], the half-maximal inhibitory concentration (IC50) was more than 79 µM.

As for `O=C(Oc1coc(CSc2ncccn2)cc1=O)c1ccc(-c2ccccc2)cc1`, the IC50 in assay [1] and in assay [2] was more than 79 µM throughout.

In turn, `O=C(Oc1coc(CSc2ncccn2)cc1=O)c1ccc(Br)cc1` returned a concentration for half-maximal inhibition (IC50) in assay [1] of more than 79 µM.

As to `Cc1ccnc(SCc2cc(=O)c(OC(=O)c3cnco3)co2)n1`, the IC50 in assay [1] and in assay [2] was more than 79 µM throughout.
